Measurements reported in publication PMC5720837, “Identification of a 4-fluorobenzyl L-valinate amide benzoxaborole (AN11736) as a potential development candidate for the treatment of Animal African Trypanosomiasis (AAT)” (Bioorganic & Medicinal Chemistry Letters, 2018).

Tested on: Trypanosoma vivax (T. vivax STIB719/ILRAD 560 strain), bloodstream form
Assay: Whole cell Alamar Blue assay, T. vivax (48 h ex vivo)
Type: cell-based
Details: T. vivax STIB719/ILRAD 560, 48 h ex vivo Alamar Blue assay
Procedure: (§1) Activity of compounds 1–71 against T. congolense and T. vivax was determined using the whole cell assays as described ^6 and their IC50 values are summarized in Table 1.
(§2) [6] Assay methods for determination of T. c. and T. v. […] Culture media consisted of complete HMI-9 (IMDM) with 20% bovine serum. To ensure log growth phase, trypanosomes were sub-cultured at appropriate dilutions every 2–3 days. Bloodstream form Trypanosoma vivax (T. vivax) cannot be cultured axenically, therefore trypanosomes (T. vivax STIB719/ILRAD 560 strain) were harvested from a highly parasitemia mouse via cardiac puncture and used directly in the ex vivo drug sensitivity assay on the same day. […] Parasite starting concentrations of 2 × 10^5 (T. c.) and 4 × 10^5 (T. v.) were calculated respectively, using a cell analyzer system or haemo-cytometer, followed by quantification at 536 nm excitation and 588 nm emission wavelengths using a […] reader. Test compounds were prepared as 10 mg/mL DMSO stocks for each assay run. Compounds were assayed in at least three separate, independent test runs and an 11-point dilution curve was used to determine the IC50 values. Data points were averaged to generate sigmoidal dose-response curves and IC50 values were determined using Softmax Pro 5.2 software.

Structure (SMILES) | IC50 (nM) T. v.
Cc1c(C(=O)NC2(C(=O)OCc3ccc(F)cc3)CC2)ccc2c1B(O)OC2 [Compound 31] | decreased activity

Same assay, conditions: Trypanosoma vivax; T. vivax STIB719/ILRAD 560, 48 h ex vivo Alamar Blue assay

Structure (SMILES) | IC50
CC(C)[C@H](NC(=O)c1ccc2c(c1)B(O)OC2)C(=O)OCc1ccccc1 [Compound 2] | 2 nM
Cc1c(C(=O)N[C@H](C(=O)OCc2ccccc2)C(C)C)ccc2c1B(O)OC2 [Compound 4] | 0.79 nM
Cc1c(C(=O)N[C@H](C(=O)OCc2ccc(F)c(F)c2)C(C)C)ccc2c1B(O)OC2 [Compound 8] | 0.07 nM
CCc1c(C(=O)N[C@H](C(=O)OCc2ccc(F)cc2)C(C)C)ccc2c1B(O)OC2 [Compound 24] | 0.05 nM
Cc1c(C(=O)NC2(C(=O)OCc3ccc(F)cc3)CC2)ccc2c1B(O)OC2 [Compound 31] | 18 nM

Tested on: T. c. parasites (STIB736/IL1180 strain)
Assay: In vivo mouse model of T. congolense infection
Set-up: species or system NMRI female mice
Details: 1 × 5 mg/kg, intraperitoneal, monitored 60 days post treatment
Procedure: (§3) Selected compounds were screened in both mouse and bovine in vitro metabolic stability assays (mouse S9 and bovine S9), as summarized in Table 2. These two species were chosen because the primary in vivo assays were conducted in mice, and the target animal of this research program is cattle. […] We evaluated the efficacy of selected compounds in two in vivo mouse models of infection, against T. congolense and T. vivax, respectively. Mice were infected with either 1 × 10^5 T. c. parasites or 1 × 10^4 T. v. parasites, and then treated with a test compound via intraperitoneal administration for 1, 2 or 4 consecutive days. The mice were then monitored for the presence of parasitemia for up to 60 days post treatment.[7] We tested in T. c. model first, then followed up with T. v. for interesting compounds. […] We selected compound 5 (AN11736) to progress to exploratory studies to determine the efficacy and safety in a preliminary formulation against induced infections of T. vivax and T. congolense in cattle.[8]
(§4) [7] Methods for testing compound efficacy in mouse models: In vivo mouse efficacy studies were performed at the Swiss TPH, using established mouse models of infection for T. c. and T. v. NMRI female mice were independently infected either with 1 × 10^5T. c. parasites/mouse (STIB736/IL1180 strain) or 1 × 10^4T. v. parasites/mouse (STIB719/ILRAD560 strain) using an intraperitoneal route. Parasitemia was allowed to develop over 7 days (T. c.) or 3 days (T. v.), respectively, before treatment was administered. Compounds were administered via intraperitoneal injection in 10% DMSO/water. Four mice were used per treatment group. Mice were monitored for the presence of trypanosomes, via tail blood examination microscopically with twice-per-week parasitemia checks for 60 days post treatment. Parasitemia was graded on a scale of 0–3, with 0 indicating no trypanosomes seen in 20 fields of view, 1 indicating the presence of 1–5 trypanosomes per field, 2 indicating the presence of 6–20 trypanosomes per field and 3 indicating greater than 20 trypanosomes per field. Mice scoring 2 or 3 were immediately euthanized. After 60 days, aparasitemic mice were considered cured. Untreated control mice survive on average for 10 and 6 days post infection for T. c. and T. v., respectively. All in vivo mouse experiments were conducted in accordance with the strict guidelines set out by the Swiss Federal Veterinary Office, under the ethical approval of license number #2813.

Structure (SMILES) | Efficacy in mouse model T. c., n/m (mice survived / total mice in group)
Cc1c(C(=O)N[C@H](C(=O)OCc2ccc(F)c(F)c2)C(C)C)ccc2c1B(O)OC2 [Compound 8] | 0/4

Same assay, conditions: 1 × 10 mg/kg, intraperitoneal, monitored 60 days post treatment

Structure (SMILES) | Efficacy in mouse model T. c., n/m (mice survived / total mice in group)
Cc1c(C(=O)N[C@H](C(=O)OCc2ccc(F)c(F)c2)C(C)C)ccc2c1B(O)OC2 [Compound 8] | 4/4
Cc1c(C(=O)NC2(C(=O)OCc3ccc(F)cc3)CC2)ccc2c1B(O)OC2 [Compound 31] | 0/4 (1 × 10)

Same assay, conditions: 2 × 10 mg/kg, intraperitoneal, monitored 60 days post treatment

Structure (SMILES) | Efficacy in mouse model T. c., n/m (mice survived / total mice in group)
CC(C)[C@H](NC(=O)c1ccc2c(c1)B(O)OC2)C(=O)OCc1ccccc1 [Compound 2] | 0/5 (2 × 10)
Cc1c(C(=O)N[C@H](C(=O)OCc2ccccc2)C(C)C)ccc2c1B(O)OC2 [Compound 4] | 4/5 (2 × 10)
CCc1c(C(=O)N[C@H](C(=O)OCc2ccc(F)cc2)C(C)C)ccc2c1B(O)OC2 [Compound 24] | 1/4 (2 × 10)

Same assay, conditions: single 5 mg/kg dose, IP

Structure (SMILES) | cure of T. c.-infected mice
Cc1c(C(=O)N[C@H](C(=O)OCc2ccc(F)c(F)c2)C(C)C)ccc2c1B(O)OC2 [Compound 8] | unable to cure

Tested on: not listed separately
Assay: In vitro metabolic stability, bovine S9
Type: in vitro ADME
Details: S9 fraction
Procedure: as §3

Structure (SMILES) | microsomal CLint
Cc1c(C(=O)N[C@H](C(=O)OCc2ccc(F)c(F)c2)C(C)C)ccc2c1B(O)OC2 [Compound 8] | 5.6 µL/min/mg
CCc1c(C(=O)N[C@H](C(=O)OCc2ccc(F)cc2)C(C)C)ccc2c1B(O)OC2 [Compound 24] | 23 µL/min/mg
Cc1c(C(=O)NC2(C(=O)OCc3ccc(F)cc3)CC2)ccc2c1B(O)OC2 [Compound 31] | < 1 µL/min/mg

Tested on: not listed separately
Assay: In vitro metabolic stability, mouse S9
Type: in vitro ADME
Details: S9 fraction
Procedure: as §3

Structure (SMILES) | microsomal CLint
Cc1c(C(=O)N[C@H](C(=O)OCc2ccc(F)c(F)c2)C(C)C)ccc2c1B(O)OC2 [Compound 8] | 7.9 µL/min/mg
CCc1c(C(=O)N[C@H](C(=O)OCc2ccc(F)cc2)C(C)C)ccc2c1B(O)OC2 [Compound 24] | 21 µL/min/mg
Cc1c(C(=O)NC2(C(=O)OCc3ccc(F)cc3)CC2)ccc2c1B(O)OC2 [Compound 31] | < 1 µL/min/mg

Tested on: Trypanosoma congolense (T. congolense IL-3000 strain), bloodstream form
Assay: Whole cell Alamar Blue assay, T. congolense (72 h in vitro)
Type: cell-based
Details: Trypanosoma congolense, 72 h, T. congolense IL-3000, 72 h in vitro Alamar Blue assay
Procedure: as §1, §2

Structure (SMILES) | IC50
CC(C)[C@H](NC(=O)c1ccc2c(c1)B(O)OC2)C(=O)OCc1ccccc1 [Compound 2] | 2 nM
Cc1c(C(=O)N[C@H](C(=O)OCc2ccccc2)C(C)C)ccc2c1B(O)OC2 [Compound 4] | 0.46 nM
Cc1c(C(=O)N[C@H](C(=O)OCc2ccc(F)c(F)c2)C(C)C)ccc2c1B(O)OC2 [Compound 8] | 0.28 nM
CCc1c(C(=O)N[C@H](C(=O)OCc2ccc(F)cc2)C(C)C)ccc2c1B(O)OC2 [Compound 24] | 0.11 nM
Cc1c(C(=O)NC2(C(=O)OCc3ccc(F)cc3)CC2)ccc2c1B(O)OC2 [Compound 31] | 0.13 nM

Tested on: T. v. parasites (STIB719/ILRAD560 strain)
Assay: In vivo mouse model of T. vivax infection
Set-up: species or system NMRI female mice
Details: 1 × 10 mg/kg, intraperitoneal, monitored 60 days post treatment
Procedure: as §3, §4

Structure (SMILES) | Efficacy in mouse model T. v., n/m (mice survived / total mice in group)
CC(C)[C@H](NC(=O)c1ccc2c(c1)B(O)OC2)C(=O)OCc1ccccc1 [Compound 2] | 1/5
Cc1c(C(=O)N[C@H](C(=O)OCc2ccccc2)C(C)C)ccc2c1B(O)OC2 [Compound 4] | 4/4
Cc1c(C(=O)N[C@H](C(=O)OCc2ccc(F)c(F)c2)C(C)C)ccc2c1B(O)OC2 [Compound 8] | 4/4 (1 × 10)

Same assay, conditions: 2 × 10 mg/kg, intraperitoneal, monitored 60 days post treatment

Structure (SMILES) | Efficacy in mouse model T. v., n/m (mice survived / total mice in group)
Cc1c(C(=O)N[C@H](C(=O)OCc2ccccc2)C(C)C)ccc2c1B(O)OC2 [Compound 4] | 5/5

Same assay, conditions: 4 × 10 mg/kg, intraperitoneal, monitored 60 days post treatment

Structure (SMILES) | Efficacy in mouse model T. v., n/m (mice survived / total mice in group)
CC(C)[C@H](NC(=O)c1ccc2c(c1)B(O)OC2)C(=O)OCc1ccccc1 [Compound 2] | 5/5

Same assay, conditions: single dose of 10 mg/kg, IP

Structure (SMILES) | curative efficacy in the T. v.-infected mouse model
Cc1c(C(=O)N[C@H](C(=O)OCc2ccc(F)c(F)c2)C(C)C)ccc2c1B(O)OC2 [Compound 8] | 100%
